Reference: patent US8629164B2, “Inhibitors of NF-κB” (Profectus Biosciences, Inc., priority 2009, dated 2014)

Columns and labels:
c-Rel = biological target: T1, c-Rel (Homo sapiens, UniProt Q04864); test: TransAM NF-κB Family DNA Binding ELISA, c-Rel; settings: for inhibition at 5 µM: read-out: c-Rel binding % inhibit. at 5 uM, at 5 uM; for IC50: c-Rel binding IC50 (uM), cells without % sign
T1 sequence (Q04864 2-619 limits assumed): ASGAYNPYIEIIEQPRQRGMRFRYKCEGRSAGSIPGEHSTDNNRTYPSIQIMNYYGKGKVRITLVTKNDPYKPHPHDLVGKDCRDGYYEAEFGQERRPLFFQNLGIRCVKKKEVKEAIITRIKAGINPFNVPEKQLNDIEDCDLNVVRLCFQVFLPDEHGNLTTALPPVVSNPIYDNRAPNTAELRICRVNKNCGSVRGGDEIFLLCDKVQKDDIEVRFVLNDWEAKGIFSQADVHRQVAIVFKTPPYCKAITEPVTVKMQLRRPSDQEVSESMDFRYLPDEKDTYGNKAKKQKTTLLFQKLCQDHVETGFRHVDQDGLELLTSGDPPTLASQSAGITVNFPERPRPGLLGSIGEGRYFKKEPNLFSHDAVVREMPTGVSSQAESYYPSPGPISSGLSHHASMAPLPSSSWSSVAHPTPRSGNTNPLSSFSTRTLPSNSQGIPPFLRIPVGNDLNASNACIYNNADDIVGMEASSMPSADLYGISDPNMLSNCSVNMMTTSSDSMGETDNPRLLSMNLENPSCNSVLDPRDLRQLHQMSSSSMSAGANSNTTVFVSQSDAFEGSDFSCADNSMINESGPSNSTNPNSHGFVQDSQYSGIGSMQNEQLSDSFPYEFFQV
Method: (§3) Treated samples were then transferred to 30 μL Complete Binding Buffer (with DTT) in microplate wells pre-coated with the NF-κB consensus oligonucleotide. […] The plate was incubated for 1 hour at room temperature with gentle shaking and then washed 3 times with 200 μL 1× Wash Buffer. NF-κB p65, p50, p52, RelB, or c-Rel subunits bound to the plate were detected with 100 μL of the primary antibody (diluted 1:1000 in 1× Antibody Buffer) specific for that subunit. The plate was incubated for 1 hour at room temperature and then washed 3 times with 200 μL 1× Wash Buffer. Next, 100 μL of a HRP conjugated goat anti-rabbit antibody (diluted 1:1,000 in 1× Antibody Buffer) was added to each well. The plate was incubated for 1 hour at room temperature and then washed 4 times with 200 μL 1× Wash Buffer. 100 μL of room temperature Developing Solution was added to each well. The reaction was allowed to develop for 2-10 minutes until a medium dark blue color developed (depending on the subunit activity in the lot of extract or lot of recombinant protein used) and then the reaction was stopped with 100 μL Stop Solution yielding a yellow color. Absorbance was recorded using a Becton-Dickinson DTX 880 Multimode Detector at 450 nm with a reference wavelength subtracted at 620 nm.

p50 = biological target: T2, p50 (Homo sapiens, UniProt P19838); test: TransAM NF-κB Family DNA Binding ELISA, p50; settings: for IC50: p50 binding IC50 (uM), cells without % sign; for inhibition at 5 µM: read-out: p50 binding % inhibit. at 5 uM
T2 sequence (P19838 1-433 limits assumed): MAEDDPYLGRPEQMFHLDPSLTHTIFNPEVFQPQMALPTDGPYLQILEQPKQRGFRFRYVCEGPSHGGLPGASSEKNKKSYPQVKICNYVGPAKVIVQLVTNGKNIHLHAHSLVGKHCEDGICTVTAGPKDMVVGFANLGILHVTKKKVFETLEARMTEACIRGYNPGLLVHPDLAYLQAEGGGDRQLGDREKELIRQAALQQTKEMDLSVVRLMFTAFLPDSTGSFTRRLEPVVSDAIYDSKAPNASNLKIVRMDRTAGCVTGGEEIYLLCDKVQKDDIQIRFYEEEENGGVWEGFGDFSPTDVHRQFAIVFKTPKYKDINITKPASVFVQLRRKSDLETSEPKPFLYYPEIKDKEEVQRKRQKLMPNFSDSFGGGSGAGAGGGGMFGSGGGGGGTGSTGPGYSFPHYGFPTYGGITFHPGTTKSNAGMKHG
Method: as §3

[1] = system: PGE2 release from RAW264.7 cells; test: PGE2 release from LPS stimulated RAW264.7 cells; format: cell-based, mouse; settings: Mus musculus, RAW264.7, RAW 264.7 cells
Method: (§1) Specifically, A and B show the effects of the compound of Example 1 on soluble PGE2 and Il-6 secretion from RAW264.7 cells stimulated by 1 μg/mL of LPS. The cells were treated with the indicated concentrations of the compound of Example 1 for 2 hours, and then LPS was added and incubation continued for 4 hours.
LPS stimulation induces the expression of COX-2 the enzyme responsible for prostaglandin E2.

p52 = biological target: T3, p52 (Homo sapiens, UniProt Q00653); test: TransAM NF-κB Family DNA Binding ELISA, p52; settings: for IC50: p52 binding IC50 (uM), cells without % sign; for inhibition at 5 µM: read-out: p52 binding % inhibit. at 5 uM, at 5 uM
T3 sequence (Q00653 1-454 limits assumed): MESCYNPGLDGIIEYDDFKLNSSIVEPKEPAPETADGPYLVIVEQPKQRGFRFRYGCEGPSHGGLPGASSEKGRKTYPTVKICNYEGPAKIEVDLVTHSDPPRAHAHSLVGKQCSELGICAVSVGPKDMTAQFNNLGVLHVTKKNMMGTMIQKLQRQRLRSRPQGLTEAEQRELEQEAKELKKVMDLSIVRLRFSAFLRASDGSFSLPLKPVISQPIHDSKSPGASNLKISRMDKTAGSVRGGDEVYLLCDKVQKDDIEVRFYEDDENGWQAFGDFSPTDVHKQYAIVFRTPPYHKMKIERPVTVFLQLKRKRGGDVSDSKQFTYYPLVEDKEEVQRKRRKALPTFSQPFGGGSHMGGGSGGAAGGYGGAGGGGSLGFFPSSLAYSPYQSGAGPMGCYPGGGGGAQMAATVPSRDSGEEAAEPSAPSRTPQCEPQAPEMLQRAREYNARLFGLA

RelB = biological target: T4, RelB (Homo sapiens, UniProt Q01201); test: TransAM NF-κB Family DNA Binding ELISA, RelB; settings: for inhibition at 5 µM: read-out: RelB binding % inhibit. at 5 uM, at 5 uM; for IC50: RelB binding IC50 (uM), cells without % sign
T4 sequence (Q01201 1-579): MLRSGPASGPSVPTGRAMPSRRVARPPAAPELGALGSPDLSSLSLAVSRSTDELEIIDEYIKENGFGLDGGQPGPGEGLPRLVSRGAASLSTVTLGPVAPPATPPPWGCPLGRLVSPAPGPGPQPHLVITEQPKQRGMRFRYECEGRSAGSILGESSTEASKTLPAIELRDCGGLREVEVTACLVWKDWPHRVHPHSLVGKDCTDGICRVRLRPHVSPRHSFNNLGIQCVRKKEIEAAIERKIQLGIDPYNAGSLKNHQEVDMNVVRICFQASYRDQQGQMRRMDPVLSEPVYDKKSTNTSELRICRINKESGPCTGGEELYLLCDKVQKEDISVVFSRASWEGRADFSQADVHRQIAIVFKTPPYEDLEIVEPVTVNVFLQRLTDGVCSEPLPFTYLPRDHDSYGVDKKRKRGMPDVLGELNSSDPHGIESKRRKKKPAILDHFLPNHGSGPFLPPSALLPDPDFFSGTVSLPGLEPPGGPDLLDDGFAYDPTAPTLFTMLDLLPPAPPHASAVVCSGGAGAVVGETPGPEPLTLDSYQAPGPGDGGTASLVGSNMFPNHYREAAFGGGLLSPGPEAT
T4 sequence (Q00653 1-454 partner limits assumed): T3 sequence (Q00653 1-454 limits assumed)
Method: as §3

[2] = system: IL-6 release from RAW264.7 cells; test: IL-6 release from LPS stimulated RAW264.7 cells; format: cell-based, mouse; settings: Mus musculus, RAW264.7, RAW 264.7 cells
Method: as §1, with “hours. […]” for “hours.”

NF-κB [3] = test: 293-cell pNF-κB-luc reporter assay, TNF-α induced; format: cell-based; settings: HEK293 cells, NF-κB driven luciferase expression; read-out: 293/NFkB-luc EC50
Method: (§2) Inhibition of NF-κB in cells by the compound of Example 1. Two reporter cell assays were used to determine the ability of the compound of Example 1 to inhibit NE-KB driven transcription. The first assay was a 293-cell based assay with a stably integrated pNF-κB-luc reporter plasmid containing 3 NF-κB promoter elements. The second assay was a 293-cell based assay with a stably integrated pTRH1-NF-κB-dscGFP reporter containing 4 NF-κB promoter elements. Cells were treated with 0, 0.2, 1, 10, 20 and 40 μM of the compound of Example 1 for 2 hours then were induced with 20 ng/ml TNF-α for 18 hours. Following the induction, luminescence or fluorescence was quantified using a Beckman-Coulter 2300 plate reader. […] These values represent the median value generated from three independent experiments±the standard error. As a control, 0.5% DMSO treated and untreated cells were compared to verify that the Example 1 carrier had no effect on the expression of luciferase or in the readout of the assay. There was a slight decrease in the output from the assay in the DMSO treated population although it was not statistically significant. As a result of the controls, the decrease in activity in the drug treated samples was compared to the DMSO control sample.

p65 (RelA) = p65 (RelA) (Homo sapiens, UniProt Q04206); test: TransAM NF-κB Family DNA Binding ELISA, p65; settings: p65 binding IC50 (uM), binding to NF-κB sites
Method: as §3

NF-κB [4] = test: 293-cell pTRH1-NF-κB-dscGFP reporter assay, TNF-α induced; format: cell-based; settings: Homo sapiens, HEK293, HEK293 cells, NF-κB driven GFP expression; read-out: NF-kB/293/GFP EC50
Method: as §2

[5] = system: collagen-induced arthritis; test: Mouse model of collagen-induced rheumatoid arthritis (CIA)
Excerpt: Male DBA mice developed arthritis by injecting bovine CII collagen in tails at day 1 and day 21.

p65 (RelA), sequence (Q04206 whole entry): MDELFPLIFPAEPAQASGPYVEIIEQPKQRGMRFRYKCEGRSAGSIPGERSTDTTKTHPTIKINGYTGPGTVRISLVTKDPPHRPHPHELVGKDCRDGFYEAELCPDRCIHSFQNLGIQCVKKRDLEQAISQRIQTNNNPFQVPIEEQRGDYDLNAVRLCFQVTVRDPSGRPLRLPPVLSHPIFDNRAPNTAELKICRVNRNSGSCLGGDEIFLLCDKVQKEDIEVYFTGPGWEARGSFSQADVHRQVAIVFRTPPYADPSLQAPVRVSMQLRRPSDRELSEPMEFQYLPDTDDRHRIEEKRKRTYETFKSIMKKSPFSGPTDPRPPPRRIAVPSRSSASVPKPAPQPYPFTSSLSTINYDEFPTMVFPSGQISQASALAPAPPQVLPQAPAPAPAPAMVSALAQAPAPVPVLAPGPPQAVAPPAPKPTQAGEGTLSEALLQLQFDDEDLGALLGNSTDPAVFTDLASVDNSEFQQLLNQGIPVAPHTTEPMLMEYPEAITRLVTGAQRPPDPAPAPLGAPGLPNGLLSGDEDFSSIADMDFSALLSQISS

| Molecule | inhibition at 5 µM (c-Rel) [%] | IC50 (p50) [µM] | EC50 [1] [µM] | IC50 (p52) [µM] | inhibition at 5 µM (RelB) [%] | EC50 [2] [nM] | EC50 (NF-κB [3]) [µM] | IC50 (p65 (RelA)) [µM] | EC50 (NF-κB [4]) [µM] | inhibition at 5 µM (p50) [%] | inhibition at 5 µM (p52) [%] | anti-inflammation effects vs vehicle treated group ([5]; Example 2 15 mg/kg s.c. qd 21-35, etanercept 50 ug/mouse ip qd 21-35, P<0.05) | histological evaluation of joints ([5]; day 35) | myeloperoxidase activities ([5]; mouse, in vivo) | IC50 (c-Rel) [µM] | IC50 (RelB) [µM] |
| --- | --- | --- | --- | --- | --- | --- | --- | --- | --- | --- | --- | --- | --- | --- | --- | --- |
| O=C(NC1=CC(=O)C2OC2C1O)c1cnc2ccc(Cl)cc2c1O (racemic) [Example 5, (±)-6-chloro-4-hydroxy-quinoline-3-carboxylic acid-(2-hydroxy-5-oxo-7-oxa-bicyclo[4.1.0]hept-3-en-3-yl)-amide] | 12 | > 481 | 6.5 | > 481 | 0 | 430 | > 38 | 230 | > 38 |  |  |  |  |  |  |  |
| O=C(NC1=CC(=O)C2OC2C1O)c1cc(Cl)cnc1O (racemic) [Example 7, (±)-5-chloro-2-hydroxy-N-(2-hydroxy-5-oxo-7-oxa-bicyclo[4.1.0]hept-3-en-3-yl)-nicotinamide] | 63 |  | 6.8 |  | 32 | 730 | 15 | 3.6 | 3.2 | 19 | 16 |  |  |  |  |  |
| O=C(NC1=CC(=O)C2OC2C1O)c1nc2ccccc2nc1O (racemic) [Example 9, (±)-3-hydroxy-quinoxaline-2-carboxylic acid (2-hydroxy-5-oxo-7-oxa-bicyclo[4.1.0]hept-3-en-3-yl)-amide] | 44 |  | 23.6 |  | 22 | 7400 | 14 | 7.2 | 20 | 11 | 22 |  |  |  |  |  |
| etanercept [reference compound] |  |  |  |  |  |  |  |  |  |  |  | statistal significant anti-inflammation effects | significant reduction of inflammation | concomitant reduction |  |  |
| O=C(NC1=CC(=O)C2OC2C1O)c1cnc2c(C(F)(F)F)cccc2c1O (racemic) [Example 6, (±)-4-hydroxy-8-trifluoromethyl-quinoline-3-carboxylic acid-(2-hydroxy-5-oxo-7-oxa-bicyclo[4.1.0]hept-3-en-3-yl)-amide] | 27 |  | 6.2 |  | 13 | 900 | 18 | 3.3 | 3.4 | 0 | 7 |  |  |  |  |  |
| O=C(NC1=CC(=O)C2OC2C1O)c1cnc(-c2ccccc2)nc1O (racemic) [Example 8, (±)-4-hydroxy-2-phenylpyrimidine-5-carboxylic acid (2-hydroxy-5-oxo-7-oxa-bicyclo[4.1.0]hept-3-en-3-yl)-amide] | 46 |  | 26.2 |  | 21 | 2200 | 37 |  | 10 | 16 | 17 |  |  |  |  |  |
| COc1nc2ccccc2cc1C(=O)NC1=CC(=O)C2OC2C1O (racemic) [Example 25, (±)-2-methoxy-quinoline-3-carboxylic acid (2-hydroxy-5-oxo-7-oxa-bicyclo[4.1.0]hept-3-en-3-yl)-amide] |  | 1.2 |  | 4.7 |  | 130 | 4.1 | 1.1 | 0.84 |  |  |  |  |  | 0.49 | 0.65 |
| COc1nccnc1C(=O)NC1=CC(=O)C2OC2C1O (racemic) [Example 26, (±)-3-methoxy-pyrazine-2-carboxylic acid (2-hydroxy-5-oxo-7-oxa-bicyclo[4.1.0]hept-3-en-3-yl)-amide] |  | 246 |  | 84 |  | 1600 | 16 | 4.7 | 11 |  |  |  |  |  | 14 | 12 |
| Cc1ccc(C(=O)NC2=CC(=O)C3OC3C2O)c(O)n1 (racemic) [Example 10, (±)-2-hydroxy-N-(2-hydroxy-5-oxo-7-oxa-bicyclo[4.1.0]hept-3-en-3-yl)-6-methyl-nicotinamide] | 54 |  | 1.1 |  | 27 | < 240 | 19 | 2.8 | 4.5 | 6 | 11 |  |  |  |  |  |
